Data from ChEMBL document CHEMBL3885861, “Open TG-GATES”.

Species on record: Rattus norvegicus
Test: Open TG-GATES - Regimen: Single
Format: toxicity, organism-based, Sprague-Dawley
Design: regimen Single, gender Male, age 6 weeks
Settings: in vivo, po, 3 mg/kg, route gavage, dose level Low; for APTT / Bas / Eos / Fbg / Hb / Ht / Lym / MCH / MCHC / MCV / Mono / Neu / PT / Plat / RBC / Ret / WBC: tissue Blood; for KIDNEY_L / KIDNEY_R / KIDNEY_TOTAL: tissue Kidney; for LIVER: tissue Liver; for A/G / ALP / ALT / AST / BUN / CRE / Ca / Cl / DBIL / GLC / IP / K / LDH / Na / PL / RALB / TBIL / TC / TG / TP / gamma-GTP: tissue Plasma

Q: Which TERMINAL_BW (3 h) does the source give for `C=CCO` [ALLYL ALCOHOL] here?
A: 223.5 g

Q: And the APTT (3 h)?
A: 18.8 s

Q: And the Bas (3 h)?
A: 0%

Q: What about the Eos (3 h) of the same compound?
A: 1%

Q: And the Fbg (3 h)?
A: 234.6 mg/dL

Q: What about the Hb (3 h) of the same compound?
A: 13.8 g/dL

Q: What about the Ht (3 h) of the same compound?
A: 38.7%

Q: What about the Lym (3 h) of the same compound?
A: 76%

Q: What about the MCH (3 h) of the same compound?
A: 21.7 pg

Q: And the MCHC (3 h)?
A: 35.6%

Q: What about the MCV (3 h) of the same compound?
A: 60.9 fL

Q: What about the Mono (3 h) of the same compound?
A: 3.2%

Q: And the Neu (3 h)?
A: 19.8%

Q: And the PT (3 h)?
A: 11.8 s

Q: And the Plat (3 h)?
A: 126.8 x10_4/uL

Q: And the RBC (3 h)?
A: 635.2 x10_4/ul

Q: What about the Ret (3 h) of the same compound?
A: 6.4%

Q: And the WBC (3 h)?
A: 81.6 x10_2/uL

Q: What about the KIDNEY_L (3 h) of the same compound?
A: 1 g

Q: What about the KIDNEY_R (3 h) of the same compound?
A: 1 g

Q: What about the KIDNEY_TOTAL (3 h) of the same compound?
A: 2 g

Q: What about the LIVER (3 h) of the same compound?
A: 10.2 g

Q: What about the A/G (3 h) of the same compound?
A: 1.6

Q: What about the ALP (3 h) of the same compound?
A: 1094.8 IU/L

Q: And the ALT (3 h)?
A: 37.4 IU/L

Q: And the AST (3 h)?
A: 67.6 IU/L

Q: And the BUN (3 h)?
A: 11.4 mg/dL

Q: What about the CRE (3 h) of the same compound?
A: 0.4 mg/dL

Q: What about the Ca (3 h) of the same compound?
A: 11.2 mg/dL

Q: What about the Cl (3 h) of the same compound?
A: 100.6 meq/L

Q: What about the DBIL (3 h) of the same compound?
A: 0.5 mg/dL

Q: And the GLC (3 h)?
A: 195.2 mg/dL

Q: And the IP (3 h)?
A: 8.6 mg/dL

Q: And the K (3 h)?
A: 3.7 meq/L

Q: And the LDH (3 h)?
A: 235.4 IU/L

Q: What about the Na (3 h) of the same compound?
A: 139.8 meq/L

Q: And the PL (3 h)?
A: 181 mg/dL

Q: What about the RALB (3 h) of the same compound?
A: 3.5 g/dL

Q: What about the TBIL (3 h) of the same compound?
A: 0.6 mg/dL

Q: And the TC (3 h)?
A: 81 mg/dL

Q: And the TG (3 h)?
A: 262 mg/dL

Q: And the TP (3 h)?
A: 5.7 g/dL

Q: What about the gamma-GTP (3 h) of the same compound?
A: 0.6 IU/L

Q: And the TERMINAL_BW (6 h)?
A: 220.1 g

Q: And the APTT (6 h)?
A: 19 s

Q: And the Bas (6 h)?
A: 0%

Q: What about the Eos (6 h) of the same compound?
A: 1%

Q: What about the Fbg (6 h) of the same compound?
A: 220.8 mg/dL

Q: What about the Hb (6 h) of the same compound?
A: 13.2 g/dL

Q: And the Ht (6 h)?
A: 38.3%

Q: And the Lym (6 h)?
A: 76%

Q: And the MCH (6 h)?
A: 21 pg

Q: And the MCHC (6 h)?
A: 34.3%

Q: What about the MCV (6 h) of the same compound?
A: 61 fL

Q: What about the Mono (6 h) of the same compound?
A: 3.8%

Q: And the Neu (6 h)?
A: 18.8%

Q: And the PT (6 h)?
A: 12.2 s

Q: And the Plat (6 h)?
A: 122.5 x10_4/uL

Q: And the RBC (6 h)?
A: 627.4 x10_4/ul

Q: What about the Ret (6 h) of the same compound?
A: 7.1%

Q: What about the WBC (6 h) of the same compound?
A: 102.5 x10_2/uL

Q: And the KIDNEY_L (6 h)?
A: 0.9 g

Q: What about the KIDNEY_R (6 h) of the same compound?
A: 1 g

Q: And the KIDNEY_TOTAL (6 h)?
A: 1.9 g

Q: And the LIVER (6 h)?
A: 9.4 g

Q: What about the A/G (6 h) of the same compound?
A: 1.6

Q: And the ALP (6 h)?
A: 1095 IU/L

Q: And the ALT (6 h)?
A: 33 IU/L

Q: What about the AST (6 h) of the same compound?
A: 70.6 IU/L

Q: What about the BUN (6 h) of the same compound?
A: 7.8 mg/dL

Q: What about the CRE (6 h) of the same compound?
A: 0.4 mg/dL

Q: And the Ca (6 h)?
A: 10.7 mg/dL

Q: What about the Cl (6 h) of the same compound?
A: 102.8 meq/L

Q: And the DBIL (6 h)?
A: 0.1 mg/dL

Q: What about the GLC (6 h) of the same compound?
A: 192.4 mg/dL

Q: And the IP (6 h)?
A: 8.7 mg/dL

Q: And the K (6 h)?
A: 3.9 meq/L

Q: And the LDH (6 h)?
A: 222.4 IU/L

Q: What about the Na (6 h) of the same compound?
A: 141.2 meq/L

Q: What about the PL (6 h) of the same compound?
A: 149.6 mg/dL

Q: And the RALB (6 h)?
A: 3.4 g/dL

Q: What about the TBIL (6 h) of the same compound?
A: 0.2 mg/dL

Q: And the TC (6 h)?
A: 76.4 mg/dL

Q: What about the TG (6 h) of the same compound?
A: 77.8 mg/dL

Q: What about the TP (6 h) of the same compound?
A: 5.5 g/dL

Q: And the gamma-GTP (6 h)?
A: 1 IU/L

Q: And the TERMINAL_BW (9 h)?
A: 215.7 g

Q: What about the APTT (9 h) of the same compound?
A: 18.7 s

Q: And the Bas (9 h)?
A: 0%

Q: What about the Eos (9 h) of the same compound?
A: 1.2%

Q: What about the Fbg (9 h) of the same compound?
A: 221.8 mg/dL

Q: What about the Hb (9 h) of the same compound?
A: 13.4 g/dL

Q: And the Ht (9 h)?
A: 39.1%

Q: What about the Lym (9 h) of the same compound?
A: 75.8%

Q: What about the MCH (9 h) of the same compound?
A: 20.9 pg

Q: And the MCHC (9 h)?
A: 34.3%

Q: What about the MCV (9 h) of the same compound?
A: 61 fL

Q: And the Mono (9 h)?
A: 3.2%

Q: And the Neu (9 h)?
A: 20.2%

Q: And the PT (9 h)?
A: 12.2 s

Q: What about the Plat (9 h) of the same compound?
A: 124 x10_4/uL

Q: What about the RBC (9 h) of the same compound?
A: 640.4 x10_4/ul

Q: What about the Ret (9 h) of the same compound?
A: 6.9%

Q: And the WBC (9 h)?
A: 65 x10_2/uL

Q: And the KIDNEY_L (9 h)?
A: 1 g

Q: What about the KIDNEY_R (9 h) of the same compound?
A: 1 g

Q: And the KIDNEY_TOTAL (9 h)?
A: 2 g

Q: And the LIVER (9 h)?
A: 9.1 g

Q: And the A/G (9 h)?
A: 1.5

Q: And the ALP (9 h)?
A: 994.6 IU/L

Q: And the ALT (9 h)?
A: 27.6 IU/L

Q: What about the AST (9 h) of the same compound?
A: 59.2 IU/L

Q: What about the BUN (9 h) of the same compound?
A: 9.6 mg/dL

Q: And the CRE (9 h)?
A: 0.3 mg/dL

Q: What about the Ca (9 h) of the same compound?
A: 10.5 mg/dL

Q: What about the Cl (9 h) of the same compound?
A: 101.8 meq/L

Q: What about the DBIL (9 h) of the same compound?
A: 0.08 mg/dL

Q: And the GLC (9 h)?
A: 210.2 mg/dL

Q: And the IP (9 h)?
A: 10.7 mg/dL

Q: And the K (9 h)?
A: 3.8 meq/L

Q: What about the LDH (9 h) of the same compound?
A: 169.2 IU/L

Q: And the Na (9 h)?
A: 140.8 meq/L

Q: What about the PL (9 h) of the same compound?
A: 143 mg/dL

Q: What about the RALB (9 h) of the same compound?
A: 3.3 g/dL

Q: And the TBIL (9 h)?
A: 0.1 mg/dL

Q: And the TC (9 h)?
A: 71.8 mg/dL

Q: And the TG (9 h)?
A: 62 mg/dL

Q: What about the TP (9 h) of the same compound?
A: 5.5 g/dL

Q: And the gamma-GTP (9 h)?
A: 0.8 IU/L

Q: And the TERMINAL_BW (24 h)?
A: 232.9 g

Q: And the APTT (24 h)?
A: 20.4 s

Q: What about the Bas (24 h) of the same compound?
A: 0%

Q: And the Eos (24 h)?
A: 1%

Q: What about the Fbg (24 h) of the same compound?
A: 230 mg/dL

Q: And the Hb (24 h)?
A: 13.6 g/dL

Q: And the Ht (24 h)?
A: 39.9%

Q: What about the Lym (24 h) of the same compound?
A: 78.8%

Q: What about the MCH (24 h) of the same compound?
A: 20.5 pg

Q: What about the MCHC (24 h) of the same compound?
A: 34%

Q: What about the MCV (24 h) of the same compound?
A: 60.4 fL

Q: And the Mono (24 h)?
A: 3.4%

Q: And the Neu (24 h)?
A: 16.4%

Q: What about the PT (24 h) of the same compound?
A: 11.7 s

Q: What about the Plat (24 h) of the same compound?
A: 127.6 x10_4/uL

Q: And the RBC (24 h)?
A: 660.4 x10_4/ul

Q: And the Ret (24 h)?
A: 6.2%

Q: And the WBC (24 h)?
A: 97.6 x10_2/uL

Q: What about the KIDNEY_L (24 h) of the same compound?
A: 1 g

Q: And the KIDNEY_R (24 h)?
A: 1 g

Q: What about the KIDNEY_TOTAL (24 h) of the same compound?
A: 2 g

Q: And the LIVER (24 h)?
A: 11.2 g

Q: What about the A/G (24 h) of the same compound?
A: 1.5

Q: And the ALP (24 h)?
A: 863.4 IU/L

Q: What about the ALT (24 h) of the same compound?
A: 35 IU/L

Q: What about the AST (24 h) of the same compound?
A: 64.4 IU/L

Q: What about the BUN (24 h) of the same compound?
A: 16 mg/dL

Q: What about the CRE (24 h) of the same compound?
A: 0.4 mg/dL

Q: And the Ca (24 h)?
A: 10.9 mg/dL

Q: And the Cl (24 h)?
A: 101.8 meq/L

Q: And the DBIL (24 h)?
A: 0.098 mg/dL

Q: And the GLC (24 h)?
A: 202.8 mg/dL

Q: And the IP (24 h)?
A: 7.2 mg/dL

Q: And the K (24 h)?
A: 4 meq/L

Q: And the LDH (24 h)?
A: 204.6 IU/L

Q: And the Na (24 h)?
A: 141 meq/L

Q: And the PL (24 h)?
A: 154.4 mg/dL

Q: What about the RALB (24 h) of the same compound?
A: 3.4 g/dL

Q: And the TBIL (24 h)?
A: 0.2 mg/dL

Q: What about the TC (24 h) of the same compound?
A: 77 mg/dL

Q: What about the TG (24 h) of the same compound?
A: 118.2 mg/dL

Q: And the TP (24 h)?
A: 5.6 g/dL

Q: What about the gamma-GTP (24 h) of the same compound?
A: 0.8 IU/L
